Here are results for two compounds from US20180318280A1 (Salmon Pharma GmbH, priority 2017, published 2018).

Experiment [1] deals with S-phosphate, fractional phosphate elimination, FGF23. As to the kind of experiment: DBA/2 mice: S-phosphate, fractional phosphate elimination, FGF23. To be noted: for FGF23 / fractional phosphate elimination: DBA/2 mice. Type of experiment: in vivo, mouse.
Source text: For this purpose, 5/6 nephrectomized DBA/2 mice were used as model for vascular calcification.
The subject of experiment [2] is serum phosphate. Put plainly: Phase II dose finding study (DONATO), patients on hemodialysis: serum phosphate. Type of experiment: in vivo, human. To be noted: for a 0.22603 mmol/l phosphate level reduction against compare group; dose response of modified release capsules, 4 weeks. From the text: Secondary outcome criteria included a comparison of the two different […] of nicotinamide by means of several measures of safety and efficacy.

Experiment [3] has as its target GPR109A receptor (Homo sapiens, UniProt Q8TDS4). The settings on record: cited from earlier work.
The conditions of experiment [4]: given in combination with the phosphate binder sevelamer; cited from earlier work.

Sequence of GPR109A receptor (Q8TDS4 whole entry): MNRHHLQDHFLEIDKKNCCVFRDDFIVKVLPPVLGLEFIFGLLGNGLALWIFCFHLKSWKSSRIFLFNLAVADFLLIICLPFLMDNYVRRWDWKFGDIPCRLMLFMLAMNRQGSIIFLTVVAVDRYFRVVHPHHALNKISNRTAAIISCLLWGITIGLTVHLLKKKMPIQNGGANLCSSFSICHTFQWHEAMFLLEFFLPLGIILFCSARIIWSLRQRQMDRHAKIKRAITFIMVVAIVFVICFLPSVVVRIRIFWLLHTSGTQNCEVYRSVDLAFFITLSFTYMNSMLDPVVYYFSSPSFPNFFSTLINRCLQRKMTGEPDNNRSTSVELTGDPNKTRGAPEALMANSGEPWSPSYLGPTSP

Turning to `O=C([O-])[O-].[Mg+2]` [magnesium carbonate], in experiment [1], the FGF23 entry is recorded as “reduction” and the fractional phosphate elimination result is “reduction”.

`NC(=O)c1cccnc1` [nicotinamide]: the minimum effective dose in experiment [2] is 450 mg. Also, in experiment [1], the FGF23 result is “reduction” and the fractional phosphate elimination result was “reduction”. Besides, in experiment [1] (only in healthy DBA/2 mice with high phosphate diet, NA in the drinking water), the S-phosphate result was “decrease”. The “binding to or effect on the GPR109A receptor” value in experiment [3] is given as “does not bind or otherwise affect”. Also, in experiment [4], the treatment of hyperphosphatemia result is given as “ineffective”.
